Assays:
mTORC1 = target: T1, mTORC1 (Homo sapiens, UniProt P42345+P62942); experiment: Inhibition assay for mTORC1: phosphorylation of pS6K at Thr389, AlphaLISA SureFire in PC3 cells; assay type: cell-based; conditions: PC3 cells, 24 hours treatment, pS6K Thr389, analogs substituted at C40 and C16 (C16 diastereomer mixtures not isolated); for IC50: read-out: pIC50 mTORC1 (converted)
T1 construct: endogenous in cells; host or cells: PC3 cells (human prostate adenocarcinoma)
Summary of the method: (§1)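 Human prostate adenocarcinoma PC3 cells treated with compounds for 24 h. AlphaLISA SureFire read-out of pS6K Thr389 for mTORC1 and pAkt Ser473 for mTORC2, from which IC50s were derived.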

mTORC2 = target: T2, mTORC2 (Homo sapiens, UniProt P42345+P62942); experiment: Inhibition assay for mTORC2: phosphorylation of pAkt at Ser473, AlphaLISA SureFire in PC3 cells; assay type: cell-based; conditions: PC3 cells, 24 hours treatment, analogs substituted at C40 and C16 (C16 diastereomer mixtures not isolated); for IC50: read-out: pIC50 mTORC2 (converted)
T2 construct: endogenous in cells; host or cells: PC3 cells (human prostate adenocarcinoma)
Summary of the method: as §1

| IC50 (mTORC1) [nM] | IC50 (mTORC2) [nM] | pIC50 mTORC1 (mTORC1) | pIC50 mTORC2 (mTORC2) | Compound |
| --- | --- | --- | --- | --- |
| < 0.316 | < 1000 |  |  | CO[C@@H]1C[C@H](C[C@@H](C)[C@@H]2CC(=O)[C@H](C)/C=C(\C)[C@@H](O)[C@@H](OC)C(=O)[C@H](C)C[C@H](C)/C=C/C=C/C=C(\C)C(OCc3ccccc3)C[C@@H]3CC[C@@H](C)[C@@](O)(O3)C(=O)C(=O)N3CCCCC3C(=O)O2)CC[C@H]1OC(=O)NCCN1CCOCC1 (some centres unmarked) [Compound 115] |
| 0.316 to 3.16 | < 1000 |  |  | CO[C@@H]1C[C@H](C[C@@H](C)[C@@H]2CC(=O)[C@H](C)/C=C(\C)[C@@H](O)[C@@H](OC)C(=O)[C@H](C)C[C@H](C)/C=C/C=C/C=C(\C)C(OCc3ccccc3)C[C@@H]3CC[C@@H](C)[C@@](O)(O3)C(=O)C(=O)N3CCCCC3C(=O)O2)CC[C@H]1OCCCc1ccccc1 (some centres unmarked) [Compound 116] |
| < 0.316 | < 1000 |  |  | CO[C@@H]1C[C@H](C[C@@H](C)[C@@H]2CC(=O)[C@H](C)/C=C(\C)[C@@H](O)[C@@H](OC)C(=O)[C@H](C)C[C@H](C)/C=C/C=C/C=C(\C)C(OCc3ccccc3)C[C@@H]3CC[C@@H](C)[C@@](O)(O3)C(=O)C(=O)N3CCCCC3C(=O)O2)CC[C@H]1OC(=O)NCCc1ccccc1 (some centres unmarked) [Compound 117] |
|  |  | B (8.5 to 9.5 as B) | A (PIC50 for mTORC2 of <5 as A) | (1R,9S,12SR,15R,16E,18R,19R,21R,23S,24E,26E,28E,32SR,35R)-1,18-dihydroxy-30-(3-hydroxypropoxy)-19-methoxy-12-[(1R)-2-[(1S,3R,4R)-3-methoxy-4-(3-phenylpropoxy)cyclohexyl]-1-methyl-ethyl]-15,17,21,23,29,35-hexamethyl-11,36-dioxa-4-azatricyclo[30.3.1.0^4,9]hexatriaconta-16,24,26,28-tetraene-2,3,10,14,20-pentone [Compound 67] |

— patent US12565505B2, “mTORC modulators and uses thereof” (Aeovian Pharmaceuticals, Inc., priority 2019, dated 2026)
